Assay results from paper PMC8942850, “Boron clusters as broadband membrane carriers” (Nature, 2022).
Like-named read-outs stand apart in the source and are kept apart here.

Columns and labels:
[1] = gold standard in the field; cited from earlier work
Description: U-tube transport experiments, across a bulk chloroform layer, unambiguously confirmed that the brominated cluster served as a non-covalent carrier across a hydrophobic bulk barrier (Extended Data Fig. 2a, b). To quantitatively characterize the transport efficiency of the new cluster carriers, the normalized fluorescence responses in the vesicle experiments (Fig. 2b) were plotted against cluster concentration to produce dose–response curves (Fig. 2c and Extended Data Fig. 3a). We extracted, by Hill analysis, the salient parameters: the maximal activity (Ymax), the concentration needed to achiev ...

[2] = HPTS/DPX transport assay in zwitterionic EYPC vesicles; format: in vitro ADME; parameters: key to Et: Et = Ymax × (pEC50/ft); pEC50 = −log EC50
Experimental: The well-established HPTS/DPX assay, which uses 8-hydroxypyrene-1,3,6-trisulfonate (HPTS) and p-xylene-bis-pyridinium (DPX), was implemented to monitor peptide-transport activation (Fig. 2a). […] A surfactant (Triton X-100) was added at the end of the experiment (t = 600 s) to release all vesicle content and normalize the fluorescence intensity data.
Fig. 2 Carrier activity obtained from the HPTS/DPX assay. a, Schematic representation of the transport of otherwise impermeable analytes facilitated by superchaotropic cluster anions with encapsulated HPTS/DPX probe/quencher pair used for signalling. […] Concentrations of carrier and cargo, when fixed, were 40 and 20 µM, respectively, unless explicitly stated. Source data
A thin lipid film was prepared by evaporating a lipid solution with a stream of nitrogen and then dried in vacuo overnight.
Fluorescence intensities were normalized to fractional emission as I(t) = (It − I0)/(I∞ − I0), where I0 = It before cluster addition and I∞ = It after lysis.
In the activator measurements, in which different activators were tested with the same cargo, the activator efficiency (Ea) is determined from their ability to activate the transport of an impermeable cargo molecule and is characterized by Ymax, its maximal activity, and EC50, the effective activator concentration. A potent activator reaches high Ymax at low EC50. To reflect both factors, the activator efficiency is defined as Ea = Ymax × (pEC50/fa), where pEC50 is the negative logarithm of EC50.
In the transport measurements, in which different types of cargo were tested with the same activator, the transport efficiency (Et) reports on the sensitivity of the cargo for being transported and is described by Ymax, the maximal activity, and EC50, the effective cargo concentration. An easily accessible cargo reaches high Ymax at low EC50. The transport efficiency is defined as a composition of both parameters according to Et = Ymax × (pEC50/ft), where pEC50 is the negative logarithm of EC50.
Extended Data Fig. 3 Transport activity. a, Transport activity, Y, in EYPC⊃HPTS/DPX vesicles as a function of cluster concentration at constant cargo concentration (WR7, 20 µM). b, Transport activity, Y, for B12Br12^2− (40 µM) in EYPC⊃HPTS/DPX vesicles as a function of the concentration of different cargo types; red lines correspond to the resulting fit with the Hill equation. Source data

[3] = test system: HeLa cells; assay: Phalloidin-TRITC delivery, confocal imaging of F-actin staining; format: cell-based; conditions: living HeLa cells, HKR buffer, 3 h, 500 nM cargo concentration
Experimental: (§1) Representative images of two biological replicates. […] Scale bars, 50 μm.
Cells were incubated with 7 µM phalloidin-TRITC (red) in the absence (left) and presence of 50 µM ^AcR8 (middle) or 50 µM of B12Br12^2− cluster (right) in HKR buffer for 3 h, subsequently stained with Hoechst (blue), washed with DMEM without phenol red, and imaged by confocal fluorescence microscopy; bright-field images in insets. Micrographs from each cell line were processed independently, experiments were performed twice. e, MTT viability assay of the corresponding cell lines (HeLa, GT1-7, ARPE-19 and A549, from left to right) at different concentrations (0, 25, 75, 250, and 500 µM) of B12Br12^2− (black) or ^AcR8 (red); data are mean ± s.d. of five measurements. f, Confocal images of HeLa cells after incubation with 500 nM phalloidin-TRITC and different concentrations B12Br12^2−; the images correspond to those of Fig. 4 in the main text, but are shown with increased brightness to facilitate observation of the actin filaments. Representative images of two biological replicates. All scale bars are […], except for panel f (50 µm). Source data

[4] = test system: HeLa cells; assay: Confocal imaging of TAMRA-R8 / TAMRA-D-R8 / TAMRA uptake in living cells; conditions: HeLa, 1, 10 or 50 µM TAMRA, 10 µM B12Br12^2− in HKR, 1 h
Description: as §1
Representative images of two biological replicates. […] Source data
(1 picture or pasted object on this page, not shown here)

[5] = test system: Escherichia coli Top10 strain; assay: Kanamycin A delivery in E. coli (OD570 growth); format: cell-based; conditions: for mean_norm_OD570: LB, 37 °C, 18 h, mean of triplicate
Experimental: As a proof-of-principle, we investigated its potential to reduce the minimum inhibitory concentration of kanamycin A, an aminoglycoside antibiotic. Aminoglycosides function by binding to the bacterial 30S ribosomal subunit; consequently, effective passage through the cell wall and plasma membrane is essential for aminoglycosides to reach their intracellular targets. […]
A preculture of E. coli Top10 cells was incubated overnight in LB medium with 50 µg ml^−1 streptomycin sulfate. […] After 18 h, the optical density at 570 nm, as an indicator of bacterial growth, was measured with a Tecan Infinite F200Pro microplate reader. Data were normalized for each concentration of B12Br12^2− relative to the control condition without antibiotic.
Solid points indicate mean ± s.d. of three technical replicates. […] Cross-bars indicate mean ± s.d. of three independent experiments (two with technical triplicates, one with technical duplicates); values obtained in each experiment are represented by different shapes. c, Viability of HeLa cells after incubation with different doses of MMAF in the presence of 0, 5 and 10 μM B12Br12^2−. Solid points indicate mean ± s.d. of three technical replicates. d, Corresponding IC50 values of MMAF. […] Source data

For O=C(O)CCCc1ccc2ccc3cccc4ccc1c2c34 [Pyrenebutyrate (1), pyrenebutyrate, reference compound], the Ea activator efficiency [1] is given as “≈ 5”, the Ea activator efficiency ([2]; Ea = Ymax × (pEC50/fa), fa = 20.6, WR7 (20 μM) cargo, 10% error (SD)) is given as 4.9 and the “Activation of oligolysine (WK7) membrane transport” value ([2]; WK7 cargo, HPTS/DPX assay) is given as “fails to trigger any signal”. The “Ymax (%) maximal activity, carrier activity” value ([2]; carrier concentration varied, WR7 (20 μM) as common cargo, EYPC⊃HPTS/DPX vesicles, 13 µM lipid, 10 mM Tris, 107 mM NaCl, pH 7.4, HPTS fluorescence, Hill analysis, 10% error (SD) unless stated, n.a. = no detectable activity, d.l. = dye leakage, no determination possible) was 100%, the “Activity as activator for the newly introduced targets” value ([2]; membrane-impermeable analytes (100 µM), HPTS/DPX assay) was “no activity” and the EC50 ([2]; read-out: EC50 (μM) effective carrier concentration to reach 50% of Ymax, carrier concentration varied, WR7 (20 μM) as common cargo, EYPC⊃HPTS/DPX vesicles, pH 7.4, Hill analysis, 10% error (SD) unless stated, n.a. = no detectable activity, d.l. = dye leakage, no determination possible) was 103 µM.
For Phalloidin-TRITC, the “F-actin staining after B12Br12^2−-triggered membrane passage” value [3] was “excellent staining of the F-actin target”.
For TAMRA [reference compound], the “Transport of non-conjugated dye by B12Br12^2−” value [4] was “not carried”.
With kanamycin A the Et transport efficiency ([2]; Et = Ymax × (pEC50/ft), ft = 19.8 so that WR7 equals 10.0, B12Br12^2− (40 μM) carrier, 5% error (SD) unless stated) was 1.7 ± 0.2, the Et ([2]; Fig.2 d, per analyte (cargo)) was 1.7 and the “Ymax (%) maximal activity, transport of cargo” value ([2]; cargo concentration varied, B12Br12^2− (40 μM) as common carrier, EYPC⊃HPTS/DPX vesicles, 13 µM lipid, 10 mM Tris, 107 mM NaCl, pH 7.4, HPTS fluorescence, Hill analysis, 10% error (SD) unless stated, n.t. = no detectable transport) was 54 ± 6%. It also gave an EC50 ([2]; read-out: EC50 (μM) effective cargo concentration to reach 50% of Ymax, cargo concentration varied, B12Br12^2− (40 μM) as common carrier, EYPC⊃HPTS/DPX vesicles, pH 7.4, Hill analysis, 10% error (SD) unless stated, n.t. = no detectable transport) of 235 ± 70 µM, a mean_norm_OD570 ([5]; Kanamycin 3 µg/mL, B12Br12 0, normalised to no-antibiotic control) of 68.2744 and a mean_norm_OD570 ([5]; Kanamycin 3 µg/mL, B12Br12 500 mM, normalised to no-antibiotic control at same B12Br12) of 9.048. The mean_norm_OD570 ([5]; Kanamycin 3 µg/mL, B12Br12 750 mM, normalised to no-antibiotic control at same B12Br12) was 0.7906, the mean_norm_OD570 ([5]; Kanamycin 3 µg/mL, B12Br12 1000 mM, normalised to no-antibiotic control at same B12Br12) was 0.4633 and the mean_norm_OD570 ([5]; Kanamycin 2.5 mg/mL, B12Br12 0 (so in the source), normalised to no-antibiotic control) was 70.6541. For the same compound, the mean_norm_OD570 ([5]; Kanamycin 2.5 mg/mL, B12Br12 500 mM (so in the source), normalised to no-antibiotic control at same B12Br12) was 24.7877, the mean_norm_OD570 ([5]; Kanamycin 2.5 mg/mL, B12Br12 750 mM (so in the source), normalised to no-antibiotic control at same B12Br12) was 9.686 and the mean_norm_OD570 ([5]; Kanamycin 2.5 mg/mL, B12Br12 1000 mM (so in the source), normalised to no-antibiotic control at same B12Br12) was 14.0089. It also gave a mean_norm_OD570 ([5]; Kanamycin 3.5 mg/mL, B12Br12 0 (so in the source), normalised to no-antibiotic control) of 58.481, a mean_norm_OD570 ([5]; Kanamycin 3.5 mg/mL, B12Br12 500 mM (so in the source), normalised to no-antibiotic control at same B12Br12) of 0.383 and a mean_norm_OD570 ([5]; Kanamycin 3.5 mg/mL, B12Br12 750 mM (so in the source), normalised to no-antibiotic control at same B12Br12) of 0.005219. The mean_norm_OD570 ([5]; Kanamycin 3.5 mg/mL, B12Br12 1000 mM (so in the source), normalised to no-antibiotic control at same B12Br12) was 0.103, the “E. coli viability, absence of cluster” value ([5]; kanamycin A 3.5 µg ml^−1, no B12Br12^2−) was 60% and the “E. coli viability, presence of the cluster carrier” value ([5]; kanamycin A 3.5 µg ml^−1 with B12Br12^2−) was under 1%.
